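Test compounds were applied to cells in 96-well plates for 48 hours at 5 doses. GI50 is the concentration that inhibits growth by half.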 The source made the active and inactive calls. Rule as the data show it: active = GI50 up to about 1.1 µM and inactive = higher.
Columns and labels:
Test in all cases: NCI tumour cell line growth inhibition, 48 h
PC-3 = tested on: PC-3
ACHN = tested on: ACHN
OVCAR-5 = tested on: OVCAR-5
NCI-H460 = tested on: NCI-H460
SF-295 = tested on: SF-295
HCT-15 = tested on: HCT-15
COLO 205 = tested on: COLO 205
HT-29 = tested on: HT-29
786-0 = tested on: 786-0
M14 = tested on: M14
UACC-62 = tested on: UACC-62
IGROV-1 = tested on: IGROV-1
SW-620 = tested on: SW-620
CAKI-1 = tested on: CAKI-1
DU-145 = tested on: DU-145
SN12C = tested on: SN12C
NCI-H522 = tested on: NCI-H522
MDA-N = tested on: MDA-N
SK-MEL-28 = tested on: SK-MEL-28
HCT-116 = tested on: HCT-116
MDA-MB-231 = tested on: MDA-MB-231
OVCAR-3 = tested on: OVCAR-3
NCI-H226 = tested on: NCI-H226
NCI-H23 = tested on: NCI-H23
UO-31 = tested on: UO-31
OVCAR-4 = tested on: OVCAR-4
MDA-MB-435 = tested on: MDA-MB-435
SNB-75 = tested on: SNB-75
SK-MEL-2 = tested on: SK-MEL-2
A549 = tested on: A549
KM12 = tested on: KM12
EKVX = tested on: EKVX
MOLT-4 = tested on: MOLT-4
A498 = tested on: A498
SF-268 = tested on: SF-268
CCRF-CEM = tested on: CCRF-CEM
TK-10 = tested on: TK-10
K562 = tested on: K562
U-251 = tested on: U-251
LOX IMVI = tested on: LOX IMVI
T47D = tested on: T47D
SNB-19 = tested on: SNB-19
SF-539 = tested on: SF-539
HL-60 = tested on: HL-60
RPMI-8226 = tested on: RPMI-8226
RXF 393 = tested on: RXF 393
SK-MEL-5 = tested on: SK-MEL-5
OVCAR-8 = tested on: OVCAR-8
NCI/ADR-RES = tested on: NCI/ADR-RES
SK-OV-3 = tested on: SK-OV-3
BT-549 = tested on: BT-549
UACC-257 = tested on: UACC-257
HOP-92 = tested on: HOP-92
Malme-3M = tested on: Malme-3M
Hs-578T = tested on: Hs-578T
HOP-62 = tested on: HOP-62
HCC 2998 = tested on: HCC 2998
SR = tested on: SR
MCF7 = tested on: MCF7

Compound: CCOC(=O)c1ccc(-c2cc(C)no2)[nH]1
- GI50 (PC-3): 83.8 µM (inactive)
- GI50 (ACHN): > 100 µM (inactive)
- GI50 (OVCAR-5): > 100 µM (inactive)
- GI50 (NCI-H460): 33.8 µM (inactive)
- GI50 (SF-295): > 100 µM (inactive)
- GI50 (HCT-15): 30.2 µM
- GI50 (COLO 205): 40 µM (inactive)
- GI50 (HT-29): > 100 µM (inactive)
- GI50 (786-0): > 100 µM (inactive)
- GI50 (M14): > 100 µM (inactive)
- GI50 (UACC-62): 59.8 µM (inactive)
- GI50 (IGROV-1): > 100 µM (inactive)
- GI50 (SW-620): 45.3 µM (inactive)
- GI50 (CAKI-1): 28.8 µM (inactive)
- GI50 (DU-145): > 100 µM (inactive)
- GI50 (SN12C): 33 µM (inactive)
- GI50 (NCI-H522): 76.2 µM (inactive)
- GI50 (MDA-N): 22 µM (inactive)
- GI50 (SK-MEL-28): > 100 µM (inactive)
- GI50 (HCT-116): 75.3 µM (inactive)
- GI50 (MDA-MB-231): 76 µM (inactive)
- GI50 (OVCAR-3): 81.8 µM (inactive)
- GI50 (NCI-H226): > 100 µM (inactive)
- GI50 (NCI-H23): > 100 µM (inactive)
- GI50 (UO-31): > 100 µM (inactive)
- GI50 (OVCAR-4): 74.6 µM (inactive)
- GI50 (MDA-MB-435): 11.4 µM (inactive)
- GI50 (SNB-75): 60.1 µM (inactive)
- GI50 (SK-MEL-2): > 100 µM (inactive)
- GI50 (A549): 51.5 µM (inactive)
- GI50 (KM12): 31.8 µM (inactive)
- GI50 (EKVX): 41.7 µM (inactive)
- GI50 (MOLT-4): 42.1 µM (inactive)
- GI50 (A498): 63.7 µM (inactive)
- GI50 (SF-268): > 100 µM (inactive)
- GI50 (CCRF-CEM): > 100 µM (inactive)
- GI50 (TK-10): > 100 µM (inactive)
- GI50 (K562): 32.5 µM (inactive)
- GI50 (U-251): 98.4 µM (inactive)
- GI50 (LOX IMVI): > 100 µM (inactive)
- GI50 (T47D): 68.5 µM (inactive)
- GI50 (SNB-19): > 100 µM (inactive)
- GI50 (SF-539): > 100 µM (inactive)
- GI50 (HL-60): 67.5 µM (inactive)
- GI50 (RPMI-8226): > 100 µM (inactive)
- GI50 (RXF 393): > 100 µM (inactive)
- GI50 (SK-MEL-5): 81.3 µM (inactive)
- GI50 (OVCAR-8): > 100 µM (inactive)
- GI50 (NCI/ADR-RES): 46.7 µM (inactive)
- GI50 (SK-OV-3): > 100 µM (inactive)
- GI50 (BT-549): > 100 µM (inactive)
- GI50 (UACC-257): > 100 µM (inactive)
- GI50 (HOP-92): > 100 µM (inactive)
- GI50 (Malme-3M): > 100 µM (inactive)

Compound: CC(=O)NC1(NC(C)=O)C2CC(C1Cc1ccccc1)C(C)(C)C2C (stereo not drawn)
- GI50 (PC-3): > 100 µM (inactive)
- GI50 (ACHN): > 100 µM (inactive)
- GI50 (OVCAR-5): > 100 µM (inactive)
- GI50 (Hs-578T): > 100 µM (inactive)
- GI50 (NCI-H460): > 100 µM (inactive)
- GI50 (SF-295): > 100 µM (inactive)
- GI50 (COLO 205): > 100 µM (inactive)
- GI50 (HT-29): > 100 µM (inactive)
- GI50 (786-0): > 100 µM (inactive)
- GI50 (M14): > 100 µM (inactive)
- GI50 (UACC-62): > 100 µM (inactive)
- GI50 (IGROV-1): > 100 µM (inactive)
- GI50 (SW-620): > 100 µM (inactive)
- GI50 (CAKI-1): > 100 µM (inactive)
- GI50 (DU-145): > 100 µM (inactive)
- GI50 (SN12C): > 100 µM (inactive)
- GI50 (NCI-H522): > 100 µM (inactive)
- GI50 (MDA-N): > 100 µM (inactive)
- GI50 (SK-MEL-28): > 100 µM (inactive)
- GI50 (HOP-62): > 100 µM (inactive)
- GI50 (HCT-116): > 100 µM (inactive)
- GI50 (MDA-MB-231): > 100 µM (inactive)
- GI50 (OVCAR-3): > 100 µM (inactive)
- GI50 (NCI-H226): > 100 µM (inactive)
- GI50 (NCI-H23): > 100 µM (inactive)
- GI50 (UO-31): > 100 µM (inactive)
- GI50 (OVCAR-4): > 100 µM (inactive)
- GI50 (MDA-MB-435): > 100 µM (inactive)
- GI50 (SNB-75): > 100 µM (inactive)
- GI50 (A549): > 100 µM (inactive)
- GI50 (KM12): > 100 µM (inactive)
- GI50 (EKVX): > 100 µM (inactive)
- GI50 (MOLT-4): > 100 µM (inactive)
- GI50 (A498): > 100 µM (inactive)
- GI50 (SF-268): > 100 µM (inactive)
- GI50 (CCRF-CEM): > 100 µM (inactive)
- GI50 (TK-10): > 100 µM (inactive)
- GI50 (K562): > 100 µM (inactive)
- GI50 (U-251): > 100 µM (inactive)
- GI50 (HCC 2998): > 100 µM (inactive)
- GI50 (SR): > 100 µM (inactive)
- GI50 (T47D): > 100 µM (inactive)
- GI50 (SNB-19): > 100 µM (inactive)
- GI50 (SF-539): > 100 µM (inactive)
- GI50 (HL-60): > 100 µM (inactive)
- GI50 (RXF 393): > 100 µM (inactive)
- GI50 (SK-MEL-5): > 100 µM (inactive)
- GI50 (OVCAR-8): > 100 µM (inactive)
- GI50 (MCF7): > 100 µM (inactive)
- GI50 (SK-OV-3): > 100 µM (inactive)
- GI50 (BT-549): > 100 µM (inactive)
- GI50 (UACC-257): > 100 µM (inactive)
- GI50 (HOP-92): > 100 µM (inactive)
- GI50 (Malme-3M): > 100 µM (inactive)

From ChEMBL document CHEMBL1201862, “PubChem BioAssay data set” (2004)
